In paper PMC7478165, “Derivatisation of parthenolide to address chemoresistant chronic lymphocytic leukaemia” (MedChemComm, 2019):
pEC50: −log10 of the molar value.

Experiments:
[1] = test system: MEC1 CLL cell line; assay: alamarBlue assay, in vitro antileukaemic activity against MEC1 CLL cell line; type: cell-based
Source text: Defective p53-signalling increases genomic instability and drives tumour progression. A high frequency of p53 inactivation is found in relapsed, treatment-resistant, high risk CLL.[30] […] Owing to resource availability a subset of up to ten of these compounds was prioritised for further investigation. Compounds 2d, 2e, 2j, 2aa, 5a, 5d, 5e, 5f, 5ab and 6b were selected on the basis of reasons including ease of synthetic access, diversity across the chemical space probed and novelty. Those prepared under conditions (i)Scheme 1 (2d, 5a and 6b) were available on a scale and in a purity to directly permit follow-up studies, whereas compounds prepared under conditions (ii)Scheme 1 were prepared on a small scale so were resynthesised. These seven compounds (2e, 2j, 2aa, 5d, 5e, 5f and 5ab) were isolated on >30 mg scale in high purity and progressed to more following studies.
Following the identification of 5f as the most promising drug-like derivative of PTL from the aforementioned parallel/high-throughput screening, the anti-leukaemic activity of 5f was tested once more and compared directly with that of PTL (1) and DMAPT (2a), which serve as comparators and positive controls.
Amine 7 was successfully prepared as follows: 4-Piperidinecarboxylic acid was N-Boc protected to deliver 8 in 92% yield.[43] In order to confidently assign the NMR spectra of compound 8 J-MOD, HSQC and ^1H–^1H COSY were helpful, particularly in establishing that a broad resonance in the proton-decoupled ^13C NMR spectrum, centred on 42.8 ppm, corresponds to the ring-carbons bonded to nitrogen. The carboxylic acid of 8 was converted to the corresponding ethyl-3-keto-propanoate 9 in 24% yield. Conversion of 9 to the N-Boc protected congener 10, was achieved by treatment with acetamidine hydrochloride and potassium carbonate, furnishing 10 in 77% yield. Treatment with trifluoroacetic acid delivered desired compound 7 in 99% yield for the Boc-deprotection step (scale 200 mg, 17% over four linear steps). Thus, evidencing accessibility of amine 7 and with it in hand, it was timely to probe any activity arising from the amine alone. MEC1 sensitivity to 1, 5f and 7 was compared in parallel using the alamarBlue® assay (Fig. 6). […] A pre-peer-reviewed preprint of this article was deposited and may be viewed elsewhere.[44]

[2] = test system: MEC1 CLL cell line; assay: cells; design: alamarBlue (resazurin reduction) viability assay in MEC1 CLL cells; details: Homo sapiens, MEC1, 24 h; read-out: alamarBlue EC50 (uM) average
Source text: Defective p53-signalling increases genomic instability and drives tumour progression. A high frequency of p53 inactivation is found in relapsed, treatment-resistant, high risk CLL.[30] […] Owing to resource availability a subset of up to ten of these compounds was prioritised for further investigation. Compounds 2d, 2e, 2j, 2aa, 5a, 5d, 5e, 5f, 5ab and 6b were selected on the basis of reasons including ease of synthetic access, diversity across the chemical space probed and novelty. Those prepared under conditions (i)Scheme 1 (2d, 5a and 6b) were available on a scale and in a purity to directly permit follow-up studies, whereas compounds prepared under conditions (ii)Scheme 1 were prepared on a small scale so were resynthesised. These seven compounds (2e, 2j, 2aa, 5d, 5e, 5f and 5ab) were isolated on >30 mg scale in high purity and progressed to more following studies. Biological efforts at Sygnature Discovery (where differing to University of Birmingham) MEC1 cells were obtained from the American Type Culture Collection (Manassas, VA 20110 USA) and were routinely cultured in RPMI 1640 medium (Sigma-Aldrich) supplemented with 1% L-glutamine (Sigma-Aldrich), 1% Penicillin/Streptomycin (Sigma-Aldrich) and 10% FBS (Gibco). The MEC1 proliferation assay was conducted by performing a re-feed of the MEC1 cells 24 h prior to cell seeding. On the day of the assay, cells were seeded into a 384-well assay plate at a density of 12,500 cells/well in 25 μL of complete MEC1 medium. Compound treatment was performed on the day of cell seeding, with compounds prepared as duplicate compound response curves (final DMSO concentration of 0.6%). Post compound treatment, MEC1 assay plates were returned to a 37 °C/5% CO2 incubator for 24 h of incubation. Following compound treatment, cellular viability was determined by measuring reduction of alamarBlue® reagent (Invitrogen). alamarBlue® reagent (2.5 μL) was added to each assay well to give a 1:10 dilution of the neat stock and assay plates were incubated for 3 h at 37 °C/5% CO2. Reduction of alamarBlue® was determined using an Envision Xcite plate reader (Perkin Elmer) with an excitation wavelength of 560 nm set and an emission wavelength of 590 nm set. Cell viability was determined by normalising raw fluorescent data to a cell only high control and Parthenolide treated low control to provide percentage viability readout. Data was plotted and EC50 values extracted and reported EC50s represent an average of at least two independent assays.

Structure (SMILES) | EC50 [2] [µM] | further results
Cc1nc(O)cc(C2CCNCC2)n1 [Amine 7] |  | EC50 ([1]; MEC1 cells, alamarBlue, 1, 5f and 7 compared in parallel, CalcuSyn): could not be determined
CC1=CCCC2(C)OC2C2OC(=O)C(CN3CCN(Cc4cccc(C)c4)C(=O)C3)C2CC1 (stereo not shown) [5o] | > 30 | 
CC1=CCCC2(C)OC2C2OC(=O)C(CN3CCCCC3)C2CC1 (stereo not shown) [5b] | 7.8 | 
CC1=CCCC2(C)OC2C2OC(=O)C(CN3CCN(C(C)(C)C)CC3)C2CC1 (stereo not shown) [5s] | > 30 | 
CC1=CCCC2(C)OC2C2OC(=O)C(CNCc3ccccc3C(F)(F)F)C2CC1 (stereo not shown) [4u] | > 30 | 
CC1=CCCC2(C)OC2C2OC(=O)C(CNCCOc3cccc(C)c3)C2CC1 (stereo not shown) [4h] | 21.9 | 
CC1=CCCC2(C)OC2C2OC(=O)C(CNCc3ccccc3N(C)C)C2CC1 (stereo not shown) [4q] | > 30 | 
COCCN1CCN(CC2C(=O)OC3C2CCC(C)=CCCC2(C)OC32)CC1 (stereo not shown) [5j] | 19.5 | 
CC1=CCCC2(C)OC2C2OC(=O)C(CN(C)CCO)C2CC1 (stereo not shown) [Compound 2c] |  | pEC50 ([1]; Homo sapiens, MEC1, read-out: EC50 ave., MEC1 cell line, alamarBlue assay, library screen): > 4.82
CCOc1cccc(CN(CCO)CC2C(=O)OC3C2CCC(C)=CCCC2(C)OC32)c1 (stereo not shown) [2i] | 19.2 | 
CC1=CCCC2(C)OC2C2OC(=O)C(CN(C)Cc3n[nH]c4c3CCCCC4)C2CC1 (stereo not shown) [2k] | 19.3 | 
CC1=CCCC2(C)OC2C2OC(=O)C(CNCc3c(F)cccc3Cl)C2CC1 (stereo not shown) [4ad] | > 30 | 
COc1ccc(-c2noc(CNCC3C(=O)OC4C3CCC(C)=CCCC3(C)OC43)n2)cc1OC (stereo not shown) [4k] | > 30 | 
CC1=CCCC2(C)OC2C2OC(=O)C(CN3CCC(C#N)(c4ccccc4)CC3)C2CC1 (stereo not shown) [5p] | > 30 | 
CC1=CCCC2(C)OC2C2OC(=O)C(CNCc3ccc(Cl)cc3F)C2CC1 (stereo not shown) [4i] | > 30 | 
CC1=CCCC2(C)OC2C2OC(=O)C(CNCCc3nccs3)C2CC1 (stereo not shown) [4s] | > 30 | 
CC1=CCCC2(C)OC2C2OC(=O)C(CNCc3ccc(F)cc3C(F)(F)F)C2CC1 (stereo not shown) [4aa] | > 30 | 
C#CCNCC1C(=O)OC2C1CCC(C)=CCCC1(C)OC21 (stereo not shown) [4d] | > 30 | 
CCCCN1CCN(CC2C(=O)OC3C2CCC(C)=CCCC2(C)OC32)CC1 (stereo not shown) [5x] | > 30 | 
CC1=CCCC2(C)OC2C2OC(=O)C(CNCC3CCOCC3)C2CC1 (stereo not shown) [4f] | 23.3 | 

Structure (SMILES) | EC50 [2] [µM] | further results
CC1=CCCC2(C)OC2C2OC(=O)C(CN3CCn4c(nnc4C(F)(F)F)C3)C2CC1 (stereo not shown) [5v] | > 30 | 
COCCNCC1C(=O)OC2C1CCC(C)=CCCC1(C)OC21 (stereo not shown) [4b] | > 30 | 
CC1=CCCC2(C)OC2C2OC(=O)C(CN3CCC(N4CCCCC4)CC3)C2CC1 (stereo not shown) [5r] | > 30 | 
CCCC1CCN(CC2C(=O)OC3C2CCC(C)=CCCC2(C)OC32)CC1 (stereo not shown) [5i] | 22.2 | 
CC1=CCCC2(C)OC2C2OC(=O)C(CN(C)Cc3nnc(-c4ccccc4)o3)C2CC1 (stereo not shown) [2n] | > 30 | 
CC1=CCCC2(C)OC2C2OC(=O)C(CNCc3ccccc3)C2CC1 (stereo not shown) [4c] | 20.4 | 
CC1=CCCC2(C)OC2C2OC(=O)C(CNCc3c(Cl)cccc3Cl)C2CC1 (stereo not shown) [4t] | > 30 | 
COc1ccccc1CNCC1C(=O)OC2C1CCC(C)=CCCC1(C)OC21 (stereo not shown) [4p] | > 30 | 
CC1=CCCC2(C)OC2C2OC(=O)C(CNCc3c(F)cc(F)cc3F)C2CC1 (stereo not shown) [4l] | > 30 | 
CC1=CCCC2(C)OC2C2OC(=O)C(CN3CCC(N4CCc5ccccc5C4)CC3)C2CC1 (stereo not shown) [5k] | 16.3 | 
CC1=CCCC2(C)OC2C2OC(=O)C(CNCc3c(F)cccc3C(F)(F)F)C2CC1 (stereo not shown) [4ab] | > 30 | 
CC1=CCCC2(C)OC2C2OC(=O)C(CNCC(C)(C)N3CCOCC3)C2CC1 (stereo not shown) [4r] | > 30 | 
CC1=CCCC2(C)OC2C2OC(=O)C(CN(C)C(C)C)C2CC1 (stereo not shown) [2b] | > 30 | 
CC1=CCCC2(C)OC2C2OC(=O)C(CSCCO)C2CC1 (stereo not shown) [compound 3] | > 30 | 
CC1=CCCC2(C)OC2C2OC(=O)C(CN(C)Cc3nc4cc(C)c(C)cc4[nH]3)C2CC1 (stereo not shown) [2y] | > 30 | 
CC1=CCCC2(C)OC2C2OC(=O)C(CN(C)CCO)C2CC1 (stereo not shown) [2c] | 5.2 | 
CC1=CCCC2(C)OC2C2OC(=O)C(CNCc3c(F)cccc3F)C2CC1 (stereo not shown) [4z] | > 30 | 
CC1=CCCC2(C)OC2C2OC(=O)C(CNCCO)C2CC1 (stereo not shown) [4a] | 19 | 
CC1=CCCC2(C)OC2C2OC(=O)C(CNCc3ccc(N(C)C)cc3)C2CC1 (stereo not shown) [4n] | > 30 | 
CC1=CCCC2(C)OC2C2OC(=O)C(CNCc3ccc(OC(F)(F)F)cc3)C2CC1 (stereo not shown) [4w] | > 30 | 

Structure (SMILES) | EC50 [2] [µM] | further results
CC1=CCCC2(C)OC2C2OC(=O)C(CN(C)Cc3ccc(Cl)cc3)C2CC1 (stereo not shown) [2h] | 18.3 | 
CC1=CCCC2(C)OC2C2OC(=O)C(CN(C)Cc3nc(-c4ccccn4)no3)C2CC1 (stereo not shown) [2q] | > 30 | 
CC1=CCCC2(C)OC2C2OC(=O)C(CN3CCN(c4ncccn4)CC3)C2CC1 (stereo not shown) [5m] | 24.8 | 
CC1=CCCC2(C)OC2C2OC(=O)C(CN3CCC4(CC3)OCCO4)C2CC1 (stereo not shown) [5g] | 15.2 | 
CC1=CCCC2(C)OC2C2OC(=O)C(CNCc3ccc(C(F)(F)F)cc3)C2CC1 (stereo not shown) [4v] | > 30 | 
CC1=CCCC2(C)OC2C2OC(=O)C(CNCc3ccc(Cl)cc3Cl)C2CC1 (stereo not shown) [4ac] | > 30 | 
CCCc1nc(CN(CC)CC2C(=O)OC3C2CCC(C)=CCCC2(C)OC32)no1 (stereo not shown) [2s] | > 30 | 
CCN(Cc1cc(Cl)ccc1OC)CC1C(=O)OC2C1CCC(C)=CCCC1(C)OC21 (stereo not shown) [2l] | 19.8 | 
CC1=CCCC2(C)OC2C2OC(=O)C(CN(Cc3sccc3C)C3CC3)C2CC1 (stereo not shown) [2r] | > 30 | 
CC1=CCCC2(C)OC2C2OC(=O)C(CNCc3ccco3)C2CC1 (stereo not shown) [4m] | > 30 | 
CC1=CCCC2(C)OC2C2OC(=O)C(CN(Cc3ccncc3)Cc3ccc4c(c3)OCO4)C2CC1 (stereo not shown) [2u] | > 30 | 
CC1=CCCC2(C)OC2C2OC(=O)C(CNCc3cccc(OC(F)(F)F)c3)C2CC1 (stereo not shown) [4y] | > 30 | 
CC1=CCCC2(C)OC2C2OC(=O)C(CN3CCN(C)CC3)C2CC1 (stereo not shown) [5c] | > 30 | 
CC1=CCCC2(C)OC2C2OC(=O)C(CN(Cc3ccco3)Cc3cccs3)C2CC1 (stereo not shown) [2t] | > 30 | 
CC1=CCCC2(C)OC2C2OC(=O)C(CN(C)Cc3cccc(C(F)(F)F)c3)C2CC1 (stereo not shown) [2p] | > 30 | 
CC1=CCCC2(C)OC2C2OC(=O)C(CN3CCN(CC4CCCCC4)CC3)C2CC1 (stereo not shown) [5u] | > 30 | 
CC1=CCCC2(C)OC2C2OC(=O)C(CNCc3ccccc3OC(F)(F)F)C2CC1 (stereo not shown) [4x] | > 30 | 
CC1=CCCC2(C)OC2C2OC(=O)C(CN3CCN(CCc4cccs4)CC3)C2CC1 (stereo not shown) [5t] | > 30 | 
